# Assay results reported in patent US8314123B2, “5, 6, or 7-substituted -3-(hetero) arylisoquinolinamine derivatives and therapeutic use thereof” (Rexahn Pharmaceuticals, Inc., priority 2006, dated 2012).
# System: human cancer cell lines
# Test: Growth inhibition against the panel of human tumor cell lines (SRB), overall statements
# Type: cell-based
# Conditions: Table 3 cell lines
# Experimental: (§1) Cancer cell lines to determine the effect of 5, 6, or 7-substituted-3-(hetero)arylisoquinolinamine compounds were obtained from the following sources: Human MDA-MB-231 (breast), PC3 (prostate), HCT-15 (colon), HCT116 (colon), OVCAR-3 (ovary), Caki-1 (kidney), PANC-1 (pancreas), SNB-19 (glioblastoma) and SK-MEL-28 (melanoma) from the American Type Culture Collection (ATCC) (Manassas, Va.). PC3, OVCAR-3, SK-MEL-28 and SNB-19 were grown in RPMI1640 medium (Invitrogen, Carlsbad, Calif.) supplemented with 10% fetal bovine serum (“FBS”), 1 mM sodium pyruvate, 10 mM HEPES and 100 U/ml penicillin and 100 μg/ml streptomycin (“P/S”). MDA-MB-231, Caki-1, HCT-15 (colon) and PANC-1 cells were maintained in Dulbecco's modified Eagle's medium (“DMEM”, Invitrogen) supplemented with 10% FBS, P/S and 10 mM HEPES. HCT116 cells were maintained in DMEM supplemented with 10% FBS, P/S and 10 mM HEPES for in vitro cell proliferation assay and in RPMI1640 medium supplemented with 10% FBS, 1 mM sodium pyruvate, 10 mM HEPES and P/S for in vitro cell cycle analysis. All cells were incubated at 37° C. under humidified 5% CO2.
# (§2) The growth inhibition of the 5, 6, or 7-substituted-3-(hetero)arylisoquinolinamine derivatives against a variety of human tumor cells was evaluated to study the relative importance of particular substituent groups on the compounds. The 5, 6, or 7-substituted-3-(hetero)arylisoquinolinamine derivatives, prepared as described above, were tested with DMSO as a control.
# (§3) The growth inhibition assay of representative 5, 6, or 7-substituted-3-(hetero)arylisoquinolinamine derivatives against human tumor cell lines was performed using the Sulforhodamine B (“SRB”) method (Skehan et al., J. National Cancer Institute, 82: 1107-1112 (1990)). Briefly, exponentially growing tumor cells were seeded into a 96-well plate at a density of 2-3×10^3 cells/well and treated with 5, 6, or 7-substituted-3-(hetero)arylisoquinolinamine compounds the next day. Triplicate wells were used for each treatment. The cells were incubated with the various compounds for 96 hours at 37° C. in a humidified 5% CO2 atmosphere. After 96-hour incubation, cells were fixed with 10% trichloroacetic acid (“TCA”), incubated for 1 hour at 4° C., and washed 3 times with tap water. Subsequently, cells were stained with 0.4% sulforhodamine B in 1% acetic acid for 30 minutes, washed 4 times with 1% acetic acid, and air-dried again. After 5 minutes agitation in 10 mM Tris solution, the absorbance of each well was measured at 530 nm using Benchmark Plus Microplate reader (Bio-Rad Laboratories, Hercules, Calif.).
# (§4) To translate the OD530 values into the number of live cells in each well, the OD530 values were compared to those on standard OD530-versus-cell number curves generated for each cell line. The percent survival was calculated using the formula: % Survival=live cell number [test]/live cell number [control]×100
# (§5) The IC50 values were calculated by non-linear regression analysis.
# Using QSAR and medicinal chemistry techniques, a large number of compounds, including the compounds shown in Table 1-2 above, were synthesized. The synthesized compounds were screened against at least four cancer cell lines, PANC-1, MDA-MB-231, HCT116 and Caki-1, at approximately 1 μM concentration. Compounds showing activity in at least one of these cell lines were selected for further screening. From these compounds, thirty compounds were selected for further evaluation as broad-spectrum anti-proliferative agents as shown in the following Table 3.
row,SMILES,activity in growth inhibition of human cancer cell compared to Compound 23
1,"COc1ccc(-c2cc3ccc(N(C)C)cc3c(N)n2)cc1OC.Cl [Compound 15, 3-(3,4-Dimethoxyphenyl)-N^7,N^7-dimethylisoquinoline-1,7-diamine hydrochloride]",equal or better activity
2,"COc1ccc(-c2cc3cc(C)ccc3c(N)n2)c(C)c1 [Compound 31, 3-(4-Methoxy-2-methylphenyl)-6-methylisoquinolin-1-amine]",equal or better activity
3,"Cc1ccc2cc(-c3ccc4c(c3)OCO4)nc(N)c2c1 [Compound 45, 3-(Benzo[d][1,3]dioxol-6-yl)-7-methylisoquinolin-1-amine]",equal or better activity

# System: HCT116 (colon)
# Test: In vitro cell proliferation assay (SRB), HCT116
# Type: cell-based
# Conditions: Homo sapiens, HCT-116; SRB method, 96 hours; Table 3; read-out: Inhibition of cell growth (IC50, μM) HCT116
# Experimental: as §1, §2, §3, §4, §5
row,IC50 [µM],SMILES
1,0.18,"COc1ccc(-c2cc3ccc(N(C)C)cc3c(N)n2)cc1OC.Cl [Compound 15, 3-(3,4-Dimethoxyphenyl)-N^7,N^7-dimethylisoquinoline-1,7-diamine hydrochloride]"
2,0.17,"COc1ccc(-c2cc3cc(C)ccc3c(N)n2)c(C)c1 [Compound 31, 3-(4-Methoxy-2-methylphenyl)-6-methylisoquinolin-1-amine]"
3,0.18,"Cc1ccc2cc(-c3ccc4c(c3)OCO4)nc(N)c2c1 [Compound 45, 3-(Benzo[d][1,3]dioxol-6-yl)-7-methylisoquinolin-1-amine]"

# System: SNB-19 (glioblastoma)
# Test: In vitro cell proliferation assay (SRB), SNB19
# Type: cell-based
# Conditions: Homo sapiens, SRB method, 96 hours, read-out: Inhibition of cell growth (IC50, μM) SNB19
# Experimental: as §1, §2, §3, §4, §5
row,IC50 [µM],SMILES
1,0.25,"COc1ccc(-c2cc3ccc(N(C)C)cc3c(N)n2)cc1OC.Cl [Compound 15, 3-(3,4-Dimethoxyphenyl)-N^7,N^7-dimethylisoquinoline-1,7-diamine hydrochloride]"
2,0.28,"COc1ccc(-c2cc3cc(C)ccc3c(N)n2)c(C)c1 [Compound 31, 3-(4-Methoxy-2-methylphenyl)-6-methylisoquinolin-1-amine]"
3,0.38,"Cc1ccc2cc(-c3ccc4c(c3)OCO4)nc(N)c2c1 [Compound 45, 3-(Benzo[d][1,3]dioxol-6-yl)-7-methylisoquinolin-1-amine]"

# System: SK-MEL-28 (melanoma)
# Test: In vitro cell proliferation assay (SRB), SK-MEL-28
# Type: cell-based
# Conditions: Homo sapiens, SRB method, 96 hours, read-out: Inhibition of cell growth (IC50, μM) SK-MEL-28
# Experimental: as §1, §2, §3, §4, §5
row,IC50 [µM],SMILES
1,0.33,"COc1ccc(-c2cc3ccc(N(C)C)cc3c(N)n2)cc1OC.Cl [Compound 15, 3-(3,4-Dimethoxyphenyl)-N^7,N^7-dimethylisoquinoline-1,7-diamine hydrochloride]"
2,0.29,"COc1ccc(-c2cc3cc(C)ccc3c(N)n2)c(C)c1 [Compound 31, 3-(4-Methoxy-2-methylphenyl)-6-methylisoquinolin-1-amine]"
3,0.42,"Cc1ccc2cc(-c3ccc4c(c3)OCO4)nc(N)c2c1 [Compound 45, 3-(Benzo[d][1,3]dioxol-6-yl)-7-methylisoquinolin-1-amine]"

# System: PC3 (prostate)
# Test: In vitro cell proliferation assay (SRB), PC3
# Type: cell-based
# Conditions: Homo sapiens; SRB method, 96 hours; read-out: Inhibition of cell growth (IC50, μM) PC3
# Experimental: as §1, §2, §3, §4, §5
row,IC50 [µM],SMILES
1,0.23,"COc1ccc(-c2cc3ccc(N(C)C)cc3c(N)n2)cc1OC.Cl [Compound 15, 3-(3,4-Dimethoxyphenyl)-N^7,N^7-dimethylisoquinoline-1,7-diamine hydrochloride]"
2,0.25,"COc1ccc(-c2cc3cc(C)ccc3c(N)n2)c(C)c1 [Compound 31, 3-(4-Methoxy-2-methylphenyl)-6-methylisoquinolin-1-amine]"
3,0.25,"Cc1ccc2cc(-c3ccc4c(c3)OCO4)nc(N)c2c1 [Compound 45, 3-(Benzo[d][1,3]dioxol-6-yl)-7-methylisoquinolin-1-amine]"

# System: MDA-MB-231 (breast)
# Test: In vitro cell proliferation assay (SRB), MDA-MB-231
# Type: cell-based
# Conditions: Homo sapiens, SRB method, 96 hours, read-out: Inhibition of cell growth (IC50, μM) MDA-MB-231
# Experimental: as §1, §2, §3, §4, §5
row,IC50 [µM],SMILES
1,0.15,"COc1ccc(-c2cc3ccc(N(C)C)cc3c(N)n2)cc1OC.Cl [Compound 15, 3-(3,4-Dimethoxyphenyl)-N^7,N^7-dimethylisoquinoline-1,7-diamine hydrochloride]"
2,0.15,"COc1ccc(-c2cc3cc(C)ccc3c(N)n2)c(C)c1 [Compound 31, 3-(4-Methoxy-2-methylphenyl)-6-methylisoquinolin-1-amine]"
3,0.15,"Cc1ccc2cc(-c3ccc4c(c3)OCO4)nc(N)c2c1 [Compound 45, 3-(Benzo[d][1,3]dioxol-6-yl)-7-methylisoquinolin-1-amine]"

# System: PANC-1 (pancreas)
# Test: In vitro cell proliferation assay (SRB), PANC-1
# Type: cell-based
# Conditions: Homo sapiens, SRB method, 96 hours, read-out: Inhibition of cell growth (IC50, μM) PANC-1
# Experimental: as §1, §2, §3, §4, §5
row,IC50 [µM],SMILES
1,0.19,"COc1ccc(-c2cc3ccc(N(C)C)cc3c(N)n2)cc1OC.Cl [Compound 15, 3-(3,4-Dimethoxyphenyl)-N^7,N^7-dimethylisoquinoline-1,7-diamine hydrochloride]"
2,0.24,"COc1ccc(-c2cc3cc(C)ccc3c(N)n2)c(C)c1 [Compound 31, 3-(4-Methoxy-2-methylphenyl)-6-methylisoquinolin-1-amine]"
3,0.37,"Cc1ccc2cc(-c3ccc4c(c3)OCO4)nc(N)c2c1 [Compound 45, 3-(Benzo[d][1,3]dioxol-6-yl)-7-methylisoquinolin-1-amine]"

# System: OVCAR-3 (ovary)
# Test: In vitro cell proliferation assay (SRB), OVCAR3
# Type: cell-based
# Conditions: Homo sapiens, SRB method, 96 hours, read-out: Inhibition of cell growth (IC50, μM) OVCAR3
# Experimental: as §1, §2, §3, §4, §5
row,IC50 [µM],SMILES
1,0.14,"COc1ccc(-c2cc3ccc(N(C)C)cc3c(N)n2)cc1OC.Cl [Compound 15, 3-(3,4-Dimethoxyphenyl)-N^7,N^7-dimethylisoquinoline-1,7-diamine hydrochloride]"
2,0.17,"COc1ccc(-c2cc3cc(C)ccc3c(N)n2)c(C)c1 [Compound 31, 3-(4-Methoxy-2-methylphenyl)-6-methylisoquinolin-1-amine]"
3,0.23,"Cc1ccc2cc(-c3ccc4c(c3)OCO4)nc(N)c2c1 [Compound 45, 3-(Benzo[d][1,3]dioxol-6-yl)-7-methylisoquinolin-1-amine]"

# System: Caki-1 (kidney)
# Test: In vitro cell proliferation assay (SRB), Caki-1
# Type: cell-based
# Conditions: Homo sapiens, SRB method, 96 hours, read-out: Inhibition of cell growth (IC50, μM) Caki-1
# Experimental: as §1, §2, §3, §4, §5
row,SMILES,IC50 [µM]
1,"COc1ccc(-c2cc3ccc(N(C)C)cc3c(N)n2)cc1OC.Cl [Compound 15, 3-(3,4-Dimethoxyphenyl)-N^7,N^7-dimethylisoquinoline-1,7-diamine hydrochloride]",0.17
2,"COc1ccc(-c2cc3cc(C)ccc3c(N)n2)c(C)c1 [Compound 31, 3-(4-Methoxy-2-methylphenyl)-6-methylisoquinolin-1-amine]",0.12
3,"Cc1ccc2cc(-c3ccc4c(c3)OCO4)nc(N)c2c1 [Compound 45, 3-(Benzo[d][1,3]dioxol-6-yl)-7-methylisoquinolin-1-amine]",0.13
